Laboratory results: US7112605B2, “Sulfonyl-containing 3,4-diaryl-3-pyrrolin-2-ones, preparation method, and medical use thereof” (Research Institute of Materia Medica Chinese Acadamy of …, priority 2002, dated 2006)
pIC50: −log10 of the molar value. Read-outs that look alike come from different tables or passages of the source.

Columns and labels:
[1] = test system: rat carrageenan-induced foot pad edema; assay: Rat carrageenan-induced foot pad edema assay; type: in vivo, rats; conditions: 10 mg/kg oral
Experimental: Male Sprgue-Dawley rats (190–220 g) were fasted with free access to water at least 16 h prior to experiments. The rats were dosed orally with a 1 ml suspension of test compound in vehicle (0.5% methyl cellulose and 0.025% Tween-20) or with vehicle alone. One hour later a subplantar injection of 0.1 ml of 1% solution of caarageenan in 0.9% strile saline was administered to the right hind foot pad. Paw volume was measured with a displacement plethysmometer 2, 3, and 4 h after caarageenan injection.

Cyclooxygenase-1 = target: T1, Cyclooxygenase-1 (Mus musculus, UniProt P22437); assay: COX-1 assay: calcimycin-stimulated 6-keto-PGF1 production in mouse peritoneal macrophages (RIA); type: cell-based, mice; conditions: calcimycin 1 μmol/L 1 h, 6-keto-PGF1 by RIA
T1 construct: endogenous in cells; host or cells: thioglycollate-elicited peritoneal macrophages of male C57BL-6J mice
T1 sequence (P22437 27-602): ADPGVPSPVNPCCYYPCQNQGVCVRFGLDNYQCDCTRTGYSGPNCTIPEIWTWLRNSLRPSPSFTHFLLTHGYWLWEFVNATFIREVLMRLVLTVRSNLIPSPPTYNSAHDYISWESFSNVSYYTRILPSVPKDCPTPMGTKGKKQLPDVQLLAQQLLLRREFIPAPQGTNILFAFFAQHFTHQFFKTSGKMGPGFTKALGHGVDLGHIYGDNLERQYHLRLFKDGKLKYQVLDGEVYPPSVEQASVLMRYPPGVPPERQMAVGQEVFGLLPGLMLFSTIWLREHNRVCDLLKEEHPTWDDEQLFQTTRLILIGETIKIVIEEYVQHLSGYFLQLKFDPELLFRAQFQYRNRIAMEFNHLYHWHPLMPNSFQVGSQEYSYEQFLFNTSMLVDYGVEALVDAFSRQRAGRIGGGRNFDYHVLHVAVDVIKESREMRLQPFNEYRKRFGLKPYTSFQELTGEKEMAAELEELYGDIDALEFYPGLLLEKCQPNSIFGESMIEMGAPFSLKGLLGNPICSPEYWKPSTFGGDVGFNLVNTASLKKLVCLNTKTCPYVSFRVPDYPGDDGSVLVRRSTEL
Experimental: Cell culture: Adherent macrophages were harvested from the peritoneal cells of male mice (C57BL-6J, Level 2, from Experiment Animal Center, Academy of Military Medical Science) 3 d after the injection (ip) of brewer thioglycollate medium (5 mL/100 g body weight). Shortly, peritoneal cells obtained from 3˜4 mice were mixed and seeded in 48 well cell culture cluster (Costar) at a cell density of 1×10^9 cell/L in RPMI-1640 supplemented with 5% (v/v) newborn calf serum, 100 ku/L penicillin and […] streptomycin. After settlement for 2˜3 h, non-adherent cells were washed by D-Hanks' balanced salt solution. Then macrophages were cultured in RPMI-1640 without serum. Almost all of adherent cells were macrophages as assessed by Giemsa staining. Cell viability was examined by trypan blue dye exclusion. All incubation procedures were performed with 5% CO2 in humidified air at 37° C.
COX-1: assay Macrophages were incubated with test compound at different concentrations or solvent (Me2SO) for 1 h and were stimulated with calcimycin 1 μmol·L^−1 for 1 h. The amount of 6-keto-PGF1[…] (a stable metabolite of PGI2) in supernatants was measured by RIA according to manufacturer's guide. The inhibitory ratio was calculated as
(§1) [formula] Cs, Ct, Cc refer to 6-keto-PGF1[…] concentration in supernatants of calcimycin, test compound, and control groups, respectively.
(§2) Statistical analysis: Data were expressed as the mean±SD of more than three independent experiments. Dose-inhibitory effect curves were fit through “uphill dose response curves, variable slope” using Prism, GraphPad version3.00: […]

Cyclooxygenase-2 = target: T2, Cyclooxygenase-2 (Mus musculus, UniProt Q05769); assay: COX-2 assay: LPS-stimulated PGE2 production in mouse peritoneal macrophages (RIA); type: cell-based, mice; conditions: for pIC50: mouse peritoneal macrophages, LPS 1 mg/L 9 h, PGE2 by RIA; for COX-1/COX-2: ratio of IC50 COX-1 to IC50 COX-2
T2 construct: endogenous in cells; host or cells: thioglycollate-elicited peritoneal macrophages of male C57BL-6J mice
T2 sequence (Q05769 18-604): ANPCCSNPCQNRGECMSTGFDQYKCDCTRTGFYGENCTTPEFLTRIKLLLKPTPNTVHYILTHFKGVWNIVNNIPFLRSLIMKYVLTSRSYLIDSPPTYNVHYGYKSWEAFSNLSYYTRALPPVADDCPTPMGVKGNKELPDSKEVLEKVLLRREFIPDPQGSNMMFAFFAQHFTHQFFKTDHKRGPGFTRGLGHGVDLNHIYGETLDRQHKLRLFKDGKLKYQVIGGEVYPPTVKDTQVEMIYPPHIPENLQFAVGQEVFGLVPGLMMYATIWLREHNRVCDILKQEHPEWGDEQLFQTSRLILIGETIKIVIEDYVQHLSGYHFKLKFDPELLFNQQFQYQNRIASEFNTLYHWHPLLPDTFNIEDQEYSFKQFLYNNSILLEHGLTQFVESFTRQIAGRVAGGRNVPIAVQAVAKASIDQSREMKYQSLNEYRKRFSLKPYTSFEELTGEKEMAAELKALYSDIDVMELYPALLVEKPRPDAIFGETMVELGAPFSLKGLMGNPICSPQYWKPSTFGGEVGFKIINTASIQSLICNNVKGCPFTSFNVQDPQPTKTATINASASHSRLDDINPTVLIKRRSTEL
Experimental: Cell culture: Adherent macrophages were harvested from the peritoneal cells of male mice (C57BL-6J, Level 2, from Experiment Animal Center, Academy of Military Medical Science) 3 d after the injection (ip) of brewer thioglycollate medium (5 mL/100 g body weight). […] After settlement for 2˜3 h, non-adherent cells were washed by D-Hanks' balanced salt solution. […] Cell viability was examined by trypan blue dye exclusion. All incubation procedures were performed with 5% CO2 in humidified air at 37° C.
COX-2 assay: Macrophages were incubated with test compound at different concentrations or solvent (Me2SO) for 1 h and were stimulated with LPS 1 mg/L for 9 h. The amount of PGE2 in supernatants was measured by RIA. The inhibitory ratio was calculated using the same formula as in COX-1 assay section. Cs, Ct, Cc refer to PGE2 concentration in supernatants of LPS, test compound, and control groups, respectively.
as §1, §2

[2] = 3 h after carrageenan, read-out: inhibitory percentage of edema, 3 hr
[3] = 4 h after carrageenan, read-out: inhibitory percentage of edema, 4 hr

Row | SMILES | inhibition at 10 mg/kg [1, 2] [%] | inhibition at 10 mg/kg [1, 3] [%] | pIC50 (Cyclooxygenase-1) | pIC50 (Cyclooxygenase-2) | COX-1/COX-2 (Cyclooxygenase-2)
1 | CN1CC(c2ccc(S(C)(=O)=O)cc2)=C(c2ccc(Cl)cc2)C1=O [Example 117, N-Methyl-3-(4-chlorophenyl)-4-(4-methylsulfonylphenyl)-2,5-dihydropyrrole-2-one] | 48.2 | 59.3 | 6.80 | 7.62 | 6.6
2 | CN1CC(c2ccc(S(C)(=O)=O)cc2)=C(c2ccc(Br)cc2)C1=O [Example 119, N-Methyl-3-(4-bromophenyl)-4-(4-methylsulfonylphenyl)-2,5-dihydropyrrole-2-one] | 48 | 49.8 | 7.24 | 7.93 | 4.9
3 | CN1CC(c2ccc(S(C)(=O)=O)cc2)=C(c2ccc(F)cc2)C1=O [Example 120, N-Methyl-3-(4-fluorophenyl)-4-(4-methylsulfonylphenyl)-2,5-dihydropyrrole-2-one] | 39.2 | 26.2 | 6.70 | 7.86 | 14.5
4 | CCCN1CC(c2ccc(S(C)(=O)=O)cc2)=C(c2ccc(C)cc2)C1=O [Example 122, N-Propyl-3-(4-methylphenyl)-4-(4-methylsulfonylphenyl)-2,5-dihydropyrrole-2-one] | 57.2 | 59.3 | 7.04 | 7.82 | –
5 | CCCN1CC(c2ccc(S(C)(=O)=O)cc2)=C(c2ccc(F)cc2)C1=O [Example 123, N-Propyl-3-(4-fluorophenyl)-4-(4-methylsulfonylphenyl)-2,5-dihydropyrrole-2-one] | 49.6 | 50.3 | 6.30 | 7.54 | –
6 | CCCN1CC(c2ccc(S(C)(=O)=O)cc2)=C(c2ccc(Cl)cc2)C1=O [Example 124, N-Propyl-3-(4-chlorophenyl)-4-(4-methylsulfonylphenyl)-2,5-dihydropyrrole-2-one] | 39.4 | 32.7 | 8.10 | 7.61 | –
7 | Cc1ccc(C2=C(c3ccc(S(C)(=O)=O)cc3)CN(C3CC3)C2=O)cc1 [Example 125, N-Cyclopropyl-3-(4-methylphenyl)-4-(4-methylsulfonylphenyl)-2,5-dihydropyrrole-2-one] | 34.1 | 31.1 | 6.63 | 7.02 | 2.5
8 | CS(=O)(=O)c1ccc(C2=C(c3ccccc3)C(=O)OC2)cc1 [Rofecoxib, reference compound] | 45.9 | 50.2 | < 5.00 | 8.02 | –
